Laboratory results from BindingDB's records for doi:10.1016/s0960-894x(02)00995-2 (The Oxford Centre For Molecular Sciences and The Dyson …, 2003).

Target: T1, Chymotrypsin-like elastase family member 2A (Sus scrofa, UniProt P08419)
T1 sequence (P08419 whole entry): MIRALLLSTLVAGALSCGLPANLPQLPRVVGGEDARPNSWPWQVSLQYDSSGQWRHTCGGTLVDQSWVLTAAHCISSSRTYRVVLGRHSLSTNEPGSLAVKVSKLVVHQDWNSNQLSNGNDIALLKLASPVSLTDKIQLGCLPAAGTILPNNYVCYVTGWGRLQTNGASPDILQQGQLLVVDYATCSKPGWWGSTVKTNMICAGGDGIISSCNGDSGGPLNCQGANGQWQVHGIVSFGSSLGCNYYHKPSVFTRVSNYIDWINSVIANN
Assay: ChEBML_152310
From the text: Inhibitory concentration against porcine pancreatic elastase (PPE)

| IC50 | SMILES |
| --- | --- |
| 62 µM | Cc1ccc(S(=O)(=O)N2CCN(Cc3ccccc3)C(=O)[C@@H]2CC(C)C)cc1 [(S)-1-Benzyl-3-isobutyl-4-(toluene-4-sulfonyl)-piperazin-2-one] |
| 293 µM | CCC(C)[C@H]1C(=O)N(S(=O)(=O)c2ccc(C)cc2)CCN1C(=O)OC(C)(C)C (stereo partly drawn) [(S)-2-sec-Butyl-3-oxo-4-(toluene-4-sulfonyl)-piperazine-1-carboxylic acid tert-butyl ester] |
| 2000 µM | CC(C)C[C@H]1C(=O)N(Cc2ccccc2)CCN1S(C)(=O)=O [(S)-1-Benzyl-3-isobutyl-4-methanesulfonyl-piperazin-2-one] |
| 923 µM | CC(C)C[C@H]1C(=O)N(S(C)(=O)=O)CCN1C(=O)OC(C)(C)C [(S)-2-Isobutyl-4-methanesulfonyl-3-oxo-piperazine-1-carboxylic acid tert-butyl ester] |
